≈ marks a conversion by molar mass, not a printed value.

Here are results for five compounds from ChEMBL document CHEMBL4680282, “Repurposing of Drugs-The Ketamine Story” (J Med Chem, 2020).

Data set [1] deals with Glutamate NMDA receptor. The data set can be described thus: Displacement of [3H]-MK801 from NMDA receptor in rat brain membranes. The format is cell membranes, Membrane. (In general: Displacement assays read how much labelled ligand stays bound in the presence of the test substance.)
Data set [2] concerns the target Glutamate NMDA receptor. The data set can be described thus: Displacement of [3H]-MK801 from NMDA receptor in rat brain homogenate. The format is tissue-based.
Data set [3] can be described thus: Cmax in mouse brain at 10 mg/kg, ip measured after 10 mins. The data set is classed as ADME, organism-based. Details: route intraperitoneal, time 10 min, dose 10 mg/kg. As to conditions: in vivo.
Data set [4] can be described thus: Solubility of the compound in water. The data set is classed as physicochemical.
Data set [5] concerns the target Glutamate NMDA receptor; Grin1/Grin2a (Rattus norvegicus, UniProt P35439+Q00959). Nature of the data set: Displacement of [3H]-MK801 from rat brain GluN1/GluN2A expressed in HEK293 cells. The format is cell-based.
In data set [6] the target is Glutamate NMDA receptor. Nature of the data set: Displacement of [3H]-MK801 from NMDA receptor in rat brain membranes incubated for 2 hrs in presence of Mg2+ by radioligand binding assay. The data set is classed as cell membranes, Membrane.
For data set [7], the target named is Glutamate NMDA receptor. Nature of the data set: Displacement of [3H]-MK801 from NMDA receptor in rat brain membranes incubated for 60 mins in presence of Mg2+ by liquid scintillation counting method. The data set is classed as cell membranes, Membrane.
Data set [8] has as its target Glutamate NMDA receptor. Nature of the data set: Displacement of [3H]-MK801 from NMDA receptor in rat brain membranes incubated for 2 hrs in presence of Mg2+/glumate/glycine by radioligand binding assay. The format is cell membranes, Membrane.
A short description of data set [9]: Bioavailability in SL dosed human. The data set is classed as ADME, organism-based. Conditions: in vivo.
A short description of data set [10]: Bioavailability in iv dosed human. The data set is classed as ADME, organism-based. As to conditions: in vivo.
Data set [11] concerns the target Glutamate NMDA receptor; Grin1/Grin2b (Rattus norvegicus, UniProt P35439+Q00960). Nature of the data set: Displacement of [3H]-MK801 from rat brain GluN1/GluN2B expressed in HEK293 cells. The data set is classed as cell-based.
The target in data set [12] is Glutamate NMDA receptor. The data set can be described thus: Displacement of [3H]-MK801 from NMDA receptor in rat brain membranes incubated for 45 mins in presence of Mg2+ by scintillation counting method. The data set is classed as cell membranes, Membrane.
Data set [13] is described as follows: Displacement of [3H]-MK801 from NMDA receptor in dog cerebral cortex incubated for 45 mins by liquid scintillation spectrometry. The format is tissue-based, Canis lupus familiaris.
In data set [14] the test system is Homo sapiens. The data set can be described thus: Anesthetic activity in IN dosed human assessed as time duration for onset of action. The format is functional.
A short description of data set [15]: Protein binding in human plasma. The data set is classed as ADME, cell-free. As to conditions: read-out: PPB (converted).
Data set [16] in a line: Oral bioavailability in human. The format is ADME, organism-based. As to conditions: in vivo.
The test system of data set [17] is Homo sapiens. Nature of the data set: Anesthetic activity in IM dosed human assessed as time duration of action. The data set is classed as functional.
The target of data set [18] is Glutamate [NMDA] receptor. Nature of the data set: Displacement of [3H]-MK801 from NMDA receptor in human cortex incubated for 2 hrs in presence of Mg2+ by scintillation counting method. The format is tissue-based.
Data set [19] concerns Homo sapiens. Nature of the data set: Anesthetic activity in IM dosed human assessed as time duration for onset of action. The data set is classed as functional.
Data set [20] in a line: Displacement of [3H]-MK801 from NMDA receptor in dog brain homogenate incubated for 45 mins by liquid scintillation spectrometry. The format is tissue-based, Canis lupus familiaris.
Data set [21] can be described thus: Drug elimination in human urine assessed as metabolically unchanged compound. The data set is classed as ADME. As to conditions: read-out: Drug excretion.
Data set [22] addresses Glutamate NMDA receptor. The data set can be described thus: Displacement of [3H]-MK801 from NMDA receptor in rat whole brain homogenate incubated for 2 hrs in presence of Mg2+ by liquid scintillation counting method. The data set is classed as tissue-based.
The test system of data set [23] is Homo sapiens. Nature of the data set: Anesthetic activity in SC dosed human assessed as time duration for onset of action. The format is functional.
A short description of data set [24]: Cmax in human at 2 mg/kg, iv measured after 1 mins. The format is ADME, organism-based. Details: route intravenous, time 1 min, dose 2 mg/kg. Conditions: in vivo.
The target of data set [25] is Glutamate NMDA receptor. Nature of the data set: Displacement of [3H]-MK801 from NMDA receptor in Sprague-Dawley rat cerebral cortex by liquid scintillation counting method. The format is tissue-based.
Data set [26] concerns the target Glutamate NMDA receptor. Nature of the data set: Displacement of [3H]-TCP from NMDA receptor in rat brain membranes incubated for 45 mins in presence of Mg2+ by scintillation counting method. The format is cell membranes, Membrane.
A short description of data set [27]: Elimination half life in human. The format is ADME. As to conditions: read-out: beta t1/2 (converted).
Data set [28] can be described thus: Bioavailability in REC dosed human. The data set is classed as ADME, organism-based. Conditions: in vivo.
The target in data set [29] is Glutamate NMDA receptor. Nature of the data set: Displacement of [3H]-MK801 from NMDA receptor in Sprague-Dawley rat cerebellum by liquid scintillation counting method. The data set is classed as tissue-based.
In data set [30] the test system is Homo sapiens. Nature of the data set: Anesthetic activity in po dosed human assessed as time duration for onset of action. The format is functional.
For data set [31], the target named is Glutamate NMDA receptor. The data set can be described thus: Displacement of [3H]-MK801 from NMDA receptor in Sprague-Dawley rat cortex incubated for 2 hrs in presence of Mg2+ by scintillation counting method. The data set is classed as tissue-based.
Data set [32] in a line: Displacement of [3H]-MK801 from NMDA receptor in Dunkin-Hartley guinea pig brain homogenate incubated for 45 mins by liquid scintillation spectrometry. The data set is classed as tissue-based, Cavia porcellus.
The target of data set [33] is Glutamate NMDA receptor. The data set can be described thus: Displacement of [3H]-MK801 from NMDA receptor in Sprague-Dawley rat brain synaptic membrane incubated for 60 mins by liquid scintillation counting method. The format is cell membranes.
Data set [34] addresses Glutamate NMDA receptor. Nature of the data set: Displacement of [3H]-MK801 from NMDA receptor in rat forebrain homogenate incubated for 2 hrs in presence of Mg2+ by liquid scintillation counting method. The data set is classed as tissue-based.
Data set [35] relates to Homo sapiens. The data set can be described thus: Anesthetic activity in po dosed human assessed as time duration of action. The format is functional.
Data set [36] can be described thus: Displacement of [3H]-MK801 from NMDA receptor in ICR Harlan mouse brain homogenate incubated for 45 mins by liquid scintillation spectrometry. The data set is classed as tissue-based.
Data set [37] is described as follows: Bioavailability in human at 0.5 mg/kg, IM. The format is ADME, organism-based. Conditions: in vivo.
For data set [38], the target named is Glutamate NMDA receptor. Nature of the data set: Inhibition of NMDAR-mediated excitatory postsynaptic potential in Sprague-Dawley rat hippocampus CA1 region by electrophysiology. Details: species or system Brain.
Data set [39] deals with Glutamate NMDA receptor. Nature of the data set: Displacement of [3H]-MK801 from NMDA receptor in rat striatum incubated for 2 hrs in presence of Mg2+ by scintillation counting method. The format is tissue-based.
The nature of data set [40]: Bioavailability in IN dosed human. The data set is classed as ADME, organism-based. Conditions: in vivo, inhaled or intranasal.
Data set [41] can be described thus: Aqueous solubility of the compound. The data set is classed as physicochemical.
In data set [42] the target is Glutamate NMDA receptor. Nature of the data set: Displacement of [3H]-MK801 from NMDA receptor in rat spinal cord incubated for 45 mins by liquid scintillation spectrometry. The format is tissue-based.
For data set [43], the target named is Glutamate [NMDA] receptor. Nature of the data set: Displacement of [3H]-MK801 from NMDA receptor in human frontal cortex in presence of Mg2+ by scintillation counting method. The data set is classed as tissue-based.
Data set [44] deals with Glutamate NMDA receptor; GRIN1/GRIN2A (Homo sapiens, UniProt Q05586+Q12879). Nature of the data set: Displacement of [3H]-MK801 from human forebrain […] expressed in HEK293 cells by […]. The format is cell-based.
Chain of Glutamate NMDA receptor; GRIN1/GRIN2A (Q12879 whole entry, other chains not shown): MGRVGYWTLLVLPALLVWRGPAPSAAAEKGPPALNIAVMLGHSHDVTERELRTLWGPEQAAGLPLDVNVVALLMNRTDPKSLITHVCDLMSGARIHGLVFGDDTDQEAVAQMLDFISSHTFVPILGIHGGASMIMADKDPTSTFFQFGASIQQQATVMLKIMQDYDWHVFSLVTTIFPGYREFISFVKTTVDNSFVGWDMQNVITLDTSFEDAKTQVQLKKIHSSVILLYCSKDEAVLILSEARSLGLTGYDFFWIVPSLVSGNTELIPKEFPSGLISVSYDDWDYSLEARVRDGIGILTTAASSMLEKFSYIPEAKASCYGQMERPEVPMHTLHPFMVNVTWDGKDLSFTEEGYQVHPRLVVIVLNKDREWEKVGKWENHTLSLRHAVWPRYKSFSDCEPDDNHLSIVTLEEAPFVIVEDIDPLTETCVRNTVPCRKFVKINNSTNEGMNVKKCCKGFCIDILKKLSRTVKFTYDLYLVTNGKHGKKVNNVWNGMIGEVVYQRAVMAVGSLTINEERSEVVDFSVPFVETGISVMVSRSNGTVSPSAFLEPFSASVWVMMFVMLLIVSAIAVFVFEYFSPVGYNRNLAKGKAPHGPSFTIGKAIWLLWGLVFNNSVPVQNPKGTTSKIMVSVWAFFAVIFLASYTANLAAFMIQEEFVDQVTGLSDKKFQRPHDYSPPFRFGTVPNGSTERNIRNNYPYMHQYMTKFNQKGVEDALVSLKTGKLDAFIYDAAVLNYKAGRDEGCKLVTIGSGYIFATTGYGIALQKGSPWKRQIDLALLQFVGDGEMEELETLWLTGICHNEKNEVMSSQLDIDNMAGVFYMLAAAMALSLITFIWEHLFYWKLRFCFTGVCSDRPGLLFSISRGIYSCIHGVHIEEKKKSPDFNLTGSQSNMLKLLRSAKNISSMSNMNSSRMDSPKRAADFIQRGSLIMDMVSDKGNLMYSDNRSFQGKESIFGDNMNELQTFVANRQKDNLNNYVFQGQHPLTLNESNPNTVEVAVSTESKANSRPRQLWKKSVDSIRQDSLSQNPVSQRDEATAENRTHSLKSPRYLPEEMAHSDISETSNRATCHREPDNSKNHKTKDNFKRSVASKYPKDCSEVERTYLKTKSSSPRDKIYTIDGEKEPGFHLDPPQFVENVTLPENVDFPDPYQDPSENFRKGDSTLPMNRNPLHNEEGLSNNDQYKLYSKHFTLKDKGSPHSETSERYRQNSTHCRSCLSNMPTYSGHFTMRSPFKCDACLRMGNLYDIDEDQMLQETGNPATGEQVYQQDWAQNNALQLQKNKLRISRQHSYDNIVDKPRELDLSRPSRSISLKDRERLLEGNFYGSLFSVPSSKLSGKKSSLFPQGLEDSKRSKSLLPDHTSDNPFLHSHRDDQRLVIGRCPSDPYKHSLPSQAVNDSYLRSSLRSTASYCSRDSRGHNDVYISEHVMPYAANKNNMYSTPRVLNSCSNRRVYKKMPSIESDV
A short description of data set [45]: Elimination half life in Wistar rat at 20 mg/kg, iv by LC-MS analysis. As to conditions: in vivo, read-out: beta t1/2 (converted). The format is ADME, organism-based.

Chain of Glutamate NMDA receptor; Grin1/Grin2b (Q00960 whole entry, other chains not shown): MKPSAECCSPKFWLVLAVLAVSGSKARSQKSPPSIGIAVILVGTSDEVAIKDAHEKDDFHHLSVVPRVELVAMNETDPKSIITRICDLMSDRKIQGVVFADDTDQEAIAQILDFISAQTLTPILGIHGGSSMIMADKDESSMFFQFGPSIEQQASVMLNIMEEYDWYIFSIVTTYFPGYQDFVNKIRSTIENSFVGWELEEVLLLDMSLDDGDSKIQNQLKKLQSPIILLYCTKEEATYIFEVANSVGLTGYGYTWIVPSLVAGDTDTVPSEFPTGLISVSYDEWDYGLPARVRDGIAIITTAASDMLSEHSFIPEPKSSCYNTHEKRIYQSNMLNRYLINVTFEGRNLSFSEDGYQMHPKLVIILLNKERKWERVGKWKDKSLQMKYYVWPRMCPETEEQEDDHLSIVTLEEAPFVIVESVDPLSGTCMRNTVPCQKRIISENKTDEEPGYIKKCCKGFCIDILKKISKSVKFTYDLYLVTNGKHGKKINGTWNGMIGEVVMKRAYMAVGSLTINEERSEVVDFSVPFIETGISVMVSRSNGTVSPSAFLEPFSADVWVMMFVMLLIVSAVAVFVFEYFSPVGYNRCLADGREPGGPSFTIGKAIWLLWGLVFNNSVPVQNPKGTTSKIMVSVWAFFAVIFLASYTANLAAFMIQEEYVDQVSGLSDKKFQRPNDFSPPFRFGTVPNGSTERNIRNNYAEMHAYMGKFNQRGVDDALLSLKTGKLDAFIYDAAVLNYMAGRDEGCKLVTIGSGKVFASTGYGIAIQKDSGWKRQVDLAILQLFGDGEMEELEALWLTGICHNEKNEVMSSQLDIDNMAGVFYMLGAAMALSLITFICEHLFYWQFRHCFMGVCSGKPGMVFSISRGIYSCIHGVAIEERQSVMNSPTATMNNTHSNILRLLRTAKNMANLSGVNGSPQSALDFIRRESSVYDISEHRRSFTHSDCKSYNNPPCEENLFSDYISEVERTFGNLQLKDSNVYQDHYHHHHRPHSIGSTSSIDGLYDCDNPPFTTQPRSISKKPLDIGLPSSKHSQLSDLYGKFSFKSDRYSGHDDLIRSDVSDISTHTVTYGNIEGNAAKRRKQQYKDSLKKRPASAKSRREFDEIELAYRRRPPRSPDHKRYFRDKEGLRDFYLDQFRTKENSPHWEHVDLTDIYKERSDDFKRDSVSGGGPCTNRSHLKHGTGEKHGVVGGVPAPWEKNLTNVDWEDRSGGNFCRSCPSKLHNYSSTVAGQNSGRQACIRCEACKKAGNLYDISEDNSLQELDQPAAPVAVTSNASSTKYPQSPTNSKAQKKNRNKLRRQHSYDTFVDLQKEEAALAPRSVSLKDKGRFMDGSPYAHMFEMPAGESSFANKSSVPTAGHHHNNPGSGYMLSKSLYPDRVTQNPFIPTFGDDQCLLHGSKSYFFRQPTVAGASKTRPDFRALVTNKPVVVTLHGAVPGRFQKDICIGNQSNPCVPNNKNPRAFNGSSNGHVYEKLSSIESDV
Chain of Glutamate NMDA receptor; Grin1/Grin2a (Q00959 whole entry, other chains not shown): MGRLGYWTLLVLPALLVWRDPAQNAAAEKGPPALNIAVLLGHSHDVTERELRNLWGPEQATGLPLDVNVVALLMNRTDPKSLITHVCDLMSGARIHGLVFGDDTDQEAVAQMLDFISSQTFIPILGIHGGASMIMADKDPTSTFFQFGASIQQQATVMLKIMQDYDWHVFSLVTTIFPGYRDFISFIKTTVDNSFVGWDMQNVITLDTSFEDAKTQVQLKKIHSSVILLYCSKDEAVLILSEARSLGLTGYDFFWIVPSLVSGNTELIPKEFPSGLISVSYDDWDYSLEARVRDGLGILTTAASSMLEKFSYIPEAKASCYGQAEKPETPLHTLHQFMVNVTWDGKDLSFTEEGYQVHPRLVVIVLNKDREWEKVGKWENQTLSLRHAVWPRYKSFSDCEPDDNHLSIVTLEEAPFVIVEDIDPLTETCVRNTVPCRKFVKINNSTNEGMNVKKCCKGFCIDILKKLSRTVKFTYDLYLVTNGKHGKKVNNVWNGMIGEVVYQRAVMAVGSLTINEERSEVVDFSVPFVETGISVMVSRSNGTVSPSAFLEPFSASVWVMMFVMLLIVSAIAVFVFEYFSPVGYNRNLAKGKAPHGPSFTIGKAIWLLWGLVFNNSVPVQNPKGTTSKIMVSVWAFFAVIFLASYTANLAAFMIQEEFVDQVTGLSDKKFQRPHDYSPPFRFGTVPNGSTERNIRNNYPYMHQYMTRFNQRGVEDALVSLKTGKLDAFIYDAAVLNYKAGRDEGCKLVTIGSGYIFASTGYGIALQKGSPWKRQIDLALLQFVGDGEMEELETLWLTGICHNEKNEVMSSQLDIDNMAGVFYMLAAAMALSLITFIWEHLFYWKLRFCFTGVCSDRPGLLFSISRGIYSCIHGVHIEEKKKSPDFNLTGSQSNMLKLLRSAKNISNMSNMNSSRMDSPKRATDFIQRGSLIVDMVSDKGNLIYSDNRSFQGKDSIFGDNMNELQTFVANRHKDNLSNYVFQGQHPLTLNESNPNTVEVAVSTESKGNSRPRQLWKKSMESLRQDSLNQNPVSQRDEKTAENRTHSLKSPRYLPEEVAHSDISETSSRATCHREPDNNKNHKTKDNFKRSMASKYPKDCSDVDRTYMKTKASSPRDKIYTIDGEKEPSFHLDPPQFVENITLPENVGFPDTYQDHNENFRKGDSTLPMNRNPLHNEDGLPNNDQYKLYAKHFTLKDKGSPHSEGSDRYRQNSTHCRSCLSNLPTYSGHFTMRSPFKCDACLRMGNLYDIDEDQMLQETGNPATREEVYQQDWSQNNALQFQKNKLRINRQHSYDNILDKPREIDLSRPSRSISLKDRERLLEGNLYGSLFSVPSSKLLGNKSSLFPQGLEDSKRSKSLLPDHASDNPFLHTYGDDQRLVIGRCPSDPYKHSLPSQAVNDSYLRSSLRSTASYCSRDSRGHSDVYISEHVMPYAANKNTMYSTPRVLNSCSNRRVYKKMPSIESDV

What is called Ki is a measure of affinity in units of concentration, obtained from inhibition or displacement. `N[C@]1(c2ccccc2Cl)CCCCC1=O`: the values for the Ki in data set [1] and in data set [2] were 2250 nM and 1700 nM, respectively.

As for `CN[C@@]1(c2ccccc2Cl)CCCCC1=O`, the Ki worked out at 2570 nM in [1] and 1400 nM in data set [2]. This compound also had a Cmax in [3] of 7.93 µmol/kg.

Turning to `CN[C@]1(c2ccccc2Cl)CCCCC1=O` [ESKETAMINE], the Ki worked out at 690 nM in [1] and 300 nM in data set [2]. Also, the Cmax in [3] turned out to be 7.33 µmol/kg.

For orientation: solubility means how much of the substance goes into solution per volume. On to `CNC1(c2ccccc2Cl)CCCCC1=O.Cl` (stereo not given) [KETAMINE HYDROCHLORIDE], for which the solubility in data set [4] came out at 200 mg/mL.

The bioavailability is the share of a dose that reaches the circulation, judged against a reference dose that is usually intravenous. The low end stands for little systemic uptake, the high end for much systemic uptake. The IC50 is the concentration that gives 50% inhibition. Read a high IC50 as a need for much substance. As for `CNC1(c2ccccc2Cl)CCCCC1=O` (stereo not given) [KETAMINE], the Ki in [5], in data set [6], in [7], in [8], in data set [11] and in data set [12] was 180 nM throughout. For the same compound, the Ki in [13], in data set [18], in data set [20], in [22], in data set [25] and in data set [26] was 180 nM each time. For the same compound, the Ki in [29], in data set [31], in data set [32], in data set [33], in [34] and in data set [36] was 180 nM in each case. The Ki in [39], in data set [42], in [43] and in [44] was 180 nM each time. In addition, the bioavailability was determined as 24% in data set [9]; 17% in data set [16]; 11% in data set [28]; 93% in data set [37]; 8% in [40]. The F in data set [10] is given as 100%. Besides, the Time in data set [14] worked out at 5 min; in [17] it was 0.5 h; in data set [19], 1 min; in data set [23] it was 15 min; in data set [30] it was 15 min; in data set [35], 4 h. Further, in data set [15], the fraction unbound is 0.88. For the same compound, the dose excreted in [21] came out at 2%. The same compound came in with a Cmax in [24] of 7.6 µM. Also, the half-life was 2 h in data set [27] and 8 h in data set [45]. In addition, 10000 nM corresponded to half-maximal inhibition in data set [38] (IC50). This compound also displayed a solubility in [41] of 0.046 mg/mL (≈ 193 µM).
